How the values were obtained:
[1] = test system: Hepatitis C virus; assay: Inhibition of HCV1b NS3/4A protease A156T mutant by time-resolved fluorescence assay; design: species or system Hepatitis C virus subtype 1b
[2] = test system: Hepatitis C virus; assay: Inhibition of HCV1b NS3/4A protease R155K mutant by time-resolved fluorescence assay; design: species or system Hepatitis C virus subtype 1b
[3] = test system: Hepatitis C virus; assay: Antiviral activity against HCV1b con1 infected in human Huh-7 cells assessed as inhibition of viral replication after 24 hrs in presence of 50% normal human serum; format: functional, organism-based, Hepacivirus hominis; conditions: Con1, Huh-7, 24 h
[4] = test system: Hepatitis C virus; assay: Antiviral activity against HCV1b con1 infected in human Huh-7 cells assessed as inhibition of viral replication after 24 hrs in presence of 10% fetal bovine serum; format: functional, organism-based, Hepacivirus hominis; conditions: Con1, Huh-7, 24 h
[5] = Inhibition of HCV3a NS3/4A protease by time-resolved fluorescence assay; design: species or system Hepatitis C virus subtype 3a
[6] = Inhibition of HCV1b BK NS3/4A protease expressed in Escherichia coli after 1 hr by time-resolved fluorescence assay; design: species or system Hepatitis C virus (isolate BK)
[7] = Drug level in Sprague-Dawley rat liver at 5 mg/kg, po after 4 hrs; format: ADME, organism-based; design: dose 5 mg/kg, route oral; conditions: read-out: Drug uptake
[8] = Inhibition of HCV3a NS3/4A protease; design: species or system Hepatitis C virus subtype 3a
[9] = test system: Hepatitis C virus; assay: Inhibition of HCV1b NS3/4A protease; design: species or system Hepatitis C virus subtype 1b
[10] = test system: Hepatitis C virus; assay: Antiviral activity against HCV1b by cell based replicon assay; format: functional, organism-based, Hepacivirus hominis; conditions: genotype 1b

Row | Compound | Ki [8] | IC50 [10] | Ki [1] | Ki [2] | IC50 [3] | IC50 [4] | Ki [5] | Ki [6] | concentration at 4 h [7] | Ki [9]
1 | C=C[C@@H]1C[C@]1(NC(=O)[C@@H]1C[C@@H]2CN1C(=O)[C@H](C1CCCCC1)NC(=O)OCC(C)(C)CCCc1cc3c(cc(OCc4csc(C)n4)nc3cc1OC)O2)C(=O)NS(=O)(=O)C1CC1 |  |  | 88 nM | 2.1 nM | 16 nM | 3.5 nM | 3.1 nM | 0.1 nM | 19 µM | 
2 | C=C[C@@H]1C[C@]1(NC(=O)[C@@H]1C[C@@H]2CN1C(=O)[C@H](C1CCCCC1)NC(=O)OCC(C)(C)CCCc1cc3c(cc(N(C)C(=O)OCC)nc3cc1OC)O2)C(=O)NS(=O)(=O)C1CC1 |  |  | 87 nM | 3.3 nM | 27 nM | 5 nM | 4.3 nM | 0.03 nM | 42 µM | 
3 | C=C[C@@H]1C[C@]1(NC(=O)[C@@H]1C[C@@H]2CN1C(=O)[C@H](C1CCCC1)NC(=O)OCC(C)(C)CCCc1cc3c(cc(OCC)nc3cc1OC)O2)C(=O)NS(=O)(=O)C1CC1 |  |  | 41 nM | 1.3 nM | 11 nM | 2 nM | 2.2 nM | 0.03 nM | 35 µM | 
4 | C=C[C@@H]1C[C@]1(NC(=O)[C@@H]1C[C@@H]2CN1C(=O)[C@H](C1CCCC1)NC(=O)OCC(C)(C)CCCc1cc3c(nc4cc(OC)ccc4c3cc1OC)O2)C(=O)NS(=O)(=O)C1CC1 |  |  | 16 nM | 0.4 nM | 27 nM | 4 nM | 0.8 nM | < 0.02 nM | 35 µM | 
5 | C=C[C@@H]1C[C@]1(NC(=O)[C@@H]1C[C@@H]2CN1C(=O)[C@H](C1CCCC1)NC(=O)OCC(C)(C)CCCc1cc3c(nc4cc(C#N)ccc4c3cc1OC)O2)C(=O)NS(=O)(=O)C1CC1 |  |  |  |  | 13 nM | 4 nM | 0.8 nM | < 0.02 nM | 7.5 µM | 
6 | C=C[C@@H]1C[C@]1(NC(=O)[C@@H]1C[C@@H]2CN1C(=O)[C@H](C1CCCCC1)NC(=O)OCC(C)(C)CCCc1cc3c(cc(NC)nc3cc1OC)O2)C(=O)NS(=O)(=O)C1CC1 |  |  |  |  | 90 nM | 1.6 nM | 5.4 nM | 0.09 nM | < 0.005 µM | 

Second part, led by results:

Row | Ki [8] | IC50 [10] | Compound | Ki [1] | Ki [2] | IC50 [3] | IC50 [4] | Ki [5] | Ki [6] | concentration at 4 h [7] | Ki [9]
7 | 17 nM |  | C=C[C@@H]1C[C@]1(NC(=O)[C@@H]1C[C@@H]2CN1C(=O)[C@H](C1CCCC1)NC(=O)OCC(C)(C)C/C=C/c1cc3c(cc(-c4ccccc4)nc3cc1OC)O2)C(=O)NS(=O)(=O)C1CC1 |  |  |  |  |  |  | 41 µM | < 0.16 nM
8 | 475 nM | 4.5 nM | C=C[C@@H]1C[C@]1(NC(=O)[C@@H]1C[C@@H]2CN1C(=O)[C@H](C(C)(C)C)NC(=O)OCCC/C=C/c1ccc3ccnc(c3c1)O2)C(=O)NS(=O)(=O)C1CC1 |  |  |  |  |  |  |  | 0.04 nM
9 | 5.8 nM |  | C=C[C@@H]1C[C@]1(NC(=O)[C@@H]1C[C@@H]2CN1C(=O)[C@H](C(C)C)NC(=O)N(C)CCCCCc1cc3c(cc(-c4ccccc4)nc3cc1OC)O2)C(=O)NS(=O)(=O)C1CC1 |  |  |  |  |  |  | 0.304 µM | < 0.16 nM
10 | 54 nM |  | CC[C@@H]1C[C@]1(NC(=O)[C@@H]1C[C@@H]2CN1C(=O)[C@H](C(C)(C)C)NC(=O)OCC(C)(C)CCCCc1cccc3c1CN(C3)C(=O)O2)C(=O)NS(=O)(=O)C1CC1 [VANIPREVIR] |  |  |  |  |  |  |  | 

From ChEMBL document CHEMBL2202958, “Development of potent macrocyclic inhibitors of genotype 3a HCV NS3/4A protease” (Bioorg Med Chem Lett, 2012)
